From US20240108684A1, “DOSING REGIMENS FOR TREATMENT OF FUNGAL INFECTIONS” (priority 2016, published 2024)
Where two headings read alike, the source gives them in different places. *1 amine or outer side, *2 acyl side, *3 side chain or, on linkers, in order; H or OH if unused. Where a SMILES comes first, the peptide text is derived from it. Bridges are numbered along the chain shown (N, C = ends). [ ]: non-standard residue; d: D form. The star is where a group is joined. Orn(4R-OH,5R-OCH2CH2NMe3+) = C[N+](C)(C)CCO[C@@H](N[*:3])[C@H](O)C[C@H](N[*:1])C(=O)[*:2]; pTerphenylCO(4''-OnC5H11) = CCCCCOc1ccc(-c2ccc(-c3ccc(C(=O)*)cc3)cc2)cc1; hTyr(3S-OH,4S-OH) = N[C@H](C(=O)O)[C@H](O)[C@@H](O)c1ccc(O)cc1; Pro(3S-OH,4S-Me) = C[C@H]1CN[C@H](C(=O)O)[C@H]1O; Hyp = O=C(O)[C@@H]1C[C@@H](O)CN1

Legend:
[1] = test system: C. albicans; experiment: Mutant prevention concentration (MPC); type: cell-based, Candida albicans
Excerpt: As used herein, the term “mutant prevention concentration” or “MPC” refers to the concentration of a drug sufficient to suppress the development of all but very rare spontaneous mutants. The range of drug concentrations between the MIC and MPC represents a mutant selection window wherein de novo mutants are most likely to occur. Therapeutic regimens that maximize the duration of drug concentrations in excess of the MPC thereby minimize the potential for resistance development during the course of therapy.
Selection of resistance strains in vivo predominantly occurs over a range of drug concentrations falling between the MIC and MPC values. Dosing paradigms that result in plasma drug concentrations in excess of the MPC are therefore more desirable and effective in preventing the development of de novo mutants during the course of therapy (see, e.g., Drlica et al., J. Antimicrob. Chemother. 52:11-17, 2003). Currently approved treatment regimens for caspofungin, micafungin, and anidulafungin involve once-daily dosing at levels such that the Cmax is unlikely to be equivalent to or exceed the MPC at any point during treatment.

[2] = Single ascending dose IV study in healthy adult subjects (safety, PK); type: in vivo, human; details: for AUC(0-t): read-out: AUC0-168; for concentration at 144 h: read-out: C144
Procedure: In a first study, CD101 was administered by IV injection to healthy adult subjects. In this study, subjects in 4 cohorts of 8 subjects (6 active, 2 placebo) each were randomized to receive single IV doses of CD101 or placebo (normal saline) infused over 60 (±5) minutes. Dose levels of CD101 assessed follow an ascending single-dose regimen (50, 100, 200, or 400 mg).
Pharmacokinetics were first determined by analyzing plasma and urine samples for concentration of CD101 obtained from subjects who received CD101 in each cohort at various time points after administration of the single dose of the study drug.

[3] = Multiple ascending dose IV study in healthy adult subjects (safety, PK); type: in vivo, human; details: for Accumulation Ratio AUC0-168 / Accumulation Ratio Cmax: last/first dose
Procedure: A second study of CD101 administered by IV injection to healthy adult subjects was also performed. In this study, subjects in 3 cohorts of 8 subjects (6 active, 2 placebo) each were randomized to receive multiple IV doses of CD101 or placebo (normal saline) infused over 60 (±5) minutes. Dose levels of CD101 assessed follow an ascending multiple-dose regimen (100 mg×2 doses, 200 mg×2 doses, or 400 mg×3 doses).
Pharmacokinetics were determined by analyzing plasma and urine samples for concentration of CD101 obtained from subjects who received CD101 in each cohort at various time points after administration of CD101.

[4] = human, plasma, 50 mg 1-hour IV infusion
[5] = human, plasma, 100 mg 1-hour IV infusion
[6] = human, plasma, 200 mg 1-hour IV infusion
[7] = human, plasma, 400 mg 1-hour IV infusion
[8] = single IV 50, 100, 200 or 400 mg
[9] = 100 mg x2, 200 mg x2 or 400 mg x3 doses IV

For `CCCCCOc1ccc(-c2ccc(-c3ccc(C(=O)N[C@H]4C[C@@H](O)[C@@H](OCC[N+](C)(C)C)NC(=O)[C@@H]5[C@@H](O)[C@@H](C)CN5C(=O)[C@H]([C@@H](C)O)NC(=O)[C@H]([C@H](O)[C@@H](O)c5ccc(O)cc5)NC(=O)[C@@H]5C[C@@H](O)CN5C(=O)[C@H]([C@@H](C)O)NC4=O)cc3)cc2)cc1` [CD101] ({pTerphenylCO(4''-OnC5H11)}-[Orn(4R-OH,5R-OCH2CH2NMe3+)]T[Hyp][hTyr(3S-OH,4S-OH)]T[Pro(3S-OH,4S-Me)]; lactam 1-C), the MPC [1] was 16 µg/mL, the Cmax ([2]; 400 mg 1-hour IV infusion) was 22700 ng/mL and the Dose proportionality ([2]; 50-400 mg single IV) was “AUC and Cmax increased in a dose proportional manner”. For the same molecule, the “Fraction of dose excreted in urine” value ([2]; all dose levels) was < 1%, the half-life ([2]; human, plasma, intravenous, incorporating data from later collection times, read-out: terminal t1/2) was 127 to 146 h and the half-life ([2]; human, plasma, intravenous, through the first week of plasma collection, read-out: t1/2 (converted)) was > 80 h. It also gave a Vd ([2]; human, plasma, intravenous, 50-400 mg, read-out: Volume of distribution (Vz and Vss)) of 33 to 48 L, a clearance ([2]; human, plasma, intravenous, across the CD101 doses 50-400 mg, read-out: Total body clearance) of ~4 mL/min and a Tmax ([2]; human, plasma, intravenous, after start of 1-hour infusion, all doses) of ~1 h. It also gave a half-life ([2]; human, plasma, iv, 50 mg, 50 mg 1-hour IV infusion, read-out: t1/2 (converted)) of 86 h, a half-life ([2]; human, plasma, iv, 100 mg, 100 mg 1-hour IV infusion, read-out: t1/2 (converted)) of 92 h and a half-life ([2]; human, plasma, iv, 200 mg, 200 mg 1-hour IV infusion, read-out: t1/2 (converted)) of 91 h. It also gave a half-life ([2]; human, plasma, iv, 400 mg, 400 mg 1-hour IV infusion, read-out: t1/2 (converted)) of 84 h, an AUC(0-t) [2, 4] of 145 µg·h/mL and a concentration at 144 h [2, 4] of 481 ng/mL. For the same molecule, the Cmax ([2]; human, plasma, 50 mg 1-hour IV infusion, read-out: Cmax) was 2760 ng/mL, the AUC(0-t) [2, 5] was 254 µg·h/mL and the concentration at 144 h [2, 5] was 854 ng/mL. The Cmax ([2]; human, plasma, 100 mg 1-hour IV infusion, read-out: Cmax) was 4840 ng/mL, the AUC(0-t) [2, 6] was 592 µg·h/mL and the concentration at 144 h [2, 6] was 2010 ng/mL. It also gave a Cmax ([2]; human, plasma, 200 mg 1-hour IV infusion, read-out: Cmax) of 10900 ng/mL, an AUC(0-t) [2, 7] of 1160 µg·h/mL and a concentration at 144 h [2, 7] of 3830 ng/mL. For the same molecule, the “Drug-related AEs from laboratory abnormalities” value [2, 8] was “no drug-related AEs resulting from clinically significant hematology or clinical chemistry laboratory abnormalities at any dose”, the “ECG, vital signs, physical exam” value [2, 8] was “no safety issues related to electrocardiograms (ECGs), vital signs, or physical exam findings” and the “Serious and severe adverse events” value [2, 8] was “no serious adverse events (SAEs), severe adverse events (AEs), or dose-response relationships for overall AEs”. For the same molecule, the “Severity and resolution of AEs” value [2, 8] was “majority of AEs were mild, and all AEs completely resolved by the end of the study”, the Safety and tolerability ([2]; single dose up to 400 mg) was “safe and well tolerated” and the “Accumulation Ratio AUC0-168” value ([3]; 100 mg (Day 1/Day 8)) was 1.30. For the same molecule, the “Accumulation Ratio Cmax” value ([3]; 100 mg (Day 1/Day 8)) was 1.14, the “Drug-related AEs from laboratory abnormalities” value [3, 9] was “no drug-related AEs resulting from clinically significant hematology or clinical chemistry laboratory abnormalities at any dose” and the “ECG, vital signs, physical exam” value [3, 9] was “no safety issues related to ECGs, vital signs, or physical exam findings”. The “Serious and severe adverse events” value [3, 9] was “no SAEs or severe AEs”, the “Severity and resolution of AEs” value [3, 9] was “majority of AEs were mild, and all related AEs completely resolved by the end of the study” and the “Accumulation Ratio AUC0-168” value ([3]; 200 mg (Day 1/Day 8)) was 1.43. For the same molecule, the “Accumulation Ratio Cmax” value ([3]; 200 mg (Day 1/Day 8)) was 1.17, the “Accumulation Ratio AUC0-168” value ([3]; 400 mg (Day 1/Day 8/Day 15)) was 1.55 and the “Accumulation Ratio Cmax” value ([3]; 400 mg (Day 1/Day 8/Day 15)) was 1.34. It also gave a Cmax ([3]; human, plasma, intravenous, 100 mg, 100 mg weekly, Day 1) of 5670 ng/mL, an AUC(0-t) ([3]; human, plasma, intravenous, 100 mg, 100 mg weekly, Day 1, read-out: AUC0-168) of 299 µg·h/mL and a Cmax ([3]; human, plasma, intravenous, 100 mg, 100 mg weekly, Day 8) of 6490 ng/mL.
